Results as given in patent US20060281771A1, “SYNERGISTIC MODULATION OF FLT3 KINASE USING AMINOQUINOLINE AND AMINOQUINAZOLINE KINASE MODULATORS” (priority 2005, published 2006).

Tests used:
[1] = molecular target: T1, isolated kinase domain of the human FLT3 receptor (a.a. 571-993) (Homo sapiens, UniProt P36888); assay: FLT3 fluorescence polarization kinase assay; type: biochemical
T1 construct: human FLT3 receptor (a.a. 571-993)
T1 sequence (P36888 571-993): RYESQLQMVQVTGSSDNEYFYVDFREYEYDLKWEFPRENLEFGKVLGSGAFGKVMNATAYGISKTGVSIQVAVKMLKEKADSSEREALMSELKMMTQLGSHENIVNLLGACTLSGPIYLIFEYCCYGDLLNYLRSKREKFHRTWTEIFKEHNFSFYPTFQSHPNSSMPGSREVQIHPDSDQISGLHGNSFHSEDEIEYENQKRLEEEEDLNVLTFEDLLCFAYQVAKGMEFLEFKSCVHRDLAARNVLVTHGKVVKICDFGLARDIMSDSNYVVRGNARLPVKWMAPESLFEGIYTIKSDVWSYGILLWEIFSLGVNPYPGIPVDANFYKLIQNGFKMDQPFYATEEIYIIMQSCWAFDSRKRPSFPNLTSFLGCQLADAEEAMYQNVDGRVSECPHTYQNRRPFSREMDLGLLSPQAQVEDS
Excerpt: The FLT3 FP assay utilizes the fluorescein-labeled phosphopeptide and the anti-phosphotyrosine antibody included in the Panvera Phospho-Tyrosine Kinase Kit (Green) supplied by Invitrogen. When FLT3 phosphorylates polyGlu4Tyr, the fluorescein-labeled phosphopeptide is displaced from the anti-phosphotyrosine antibody by the phosphorylated poly Glu4Tyr, thus decreasing the FP value. […] The kinase reaction is stopped with the addition of EDTA. The fluorescein-labeled phosphopeptide and the anti-phosphotyrosine antibody are added and incubated for 30 minutes at room temperature.
All data points are an average of triplicate samples. Inhibition and IC50 data analysis was done with GraphPad Prism using a non-linear regression fit with a multiparamater, sigmoidal dose-response (variable slope) equation.

MV4-11 cells = assay: Inhibition of MV4-11 cell proliferation (CellTiterGlo, 72 h); type: cell-based; conditions: Homo sapiens; 72 h growth inhibition
Procedure: To assess the cellular potency of the FLT3 inhibitors of Formula I′, FLT3 specific growth inhibition was measured in the leukemic cell line MV4-11 (ATCC Number: CRL-9591). […] MV4-11 cells cannot grow and survive without active FLT3ITD.
To measure proliferation inhibition by test compounds, the luciferase based CellTiterGlo reagent (Promega), which quantifies total cell number based on total cellular ATP concentration, was used. Cells are plated at 10,000 cells per well in 100 ul of in RPMI media containing penn/strep, 10% FBS and 1 ng/ml GM-CSF or 1 ng/ml IL-3 for MV4-11 and Baf3 cells respectively.
Compound dilutions or 0.1% DMSO (vehicle control) are added to cells and the cells are allowed to grow for 72 hours at standard cell growth conditions (37° C., 5% CO2). For activity measurements in MV4-11 cells grown in 50% plasma, cells were plated at 10,000 cells per well in a 1:1 mixture of growth media and human plasma (final volume of 100 μL). To measure total cell growth an equal volume of CellTiterGlo reagent was added to each well, according to the manufacturer's instructions, and luminescence was quantified. Total cell growth was quantified as the difference in luminescent counts (relative light units, RLU) of cell number at Day 0 compared to total cell number at Day 3 (72 hours of growth and/or compound treatment). One hundred percent inhibition of growth is defined as an RLU equivalent to the Day 0 reading. Zero percent inhibition was defined as the RLU signal for the DMSO vehicle control at Day 3 of growth. All data points are an average of triplicate samples. […] Inhibition and IC50 data analysis was done with GraphPad Prism using a non-linear regression fit with a multiparamater, sigmoidal dose-response (variable slope) equation.
MV4-11 cells express the FLT3 internal tandem duplication mutation, and thus are entirely dependent upon FLT3 activity for growth. […] In contrast, the Baf3 cell proliferation is driven by the cytokine IL-3 and thus are used as a non-specific toxicity control for test compounds.

[2] = molecular target: T2, wild-type FLT3 phosphorylation in Baf3 FLT3 cells (Homo sapiens, UniProt P36888); assay: Cell-based FLT3 receptor ELISA; conditions: FLT ligand-induced FLT3 phosphorylation
T2 construct: host or cells: Baf3 (murine B cell lymphoma line)
T2 sequence (P36888 27-993): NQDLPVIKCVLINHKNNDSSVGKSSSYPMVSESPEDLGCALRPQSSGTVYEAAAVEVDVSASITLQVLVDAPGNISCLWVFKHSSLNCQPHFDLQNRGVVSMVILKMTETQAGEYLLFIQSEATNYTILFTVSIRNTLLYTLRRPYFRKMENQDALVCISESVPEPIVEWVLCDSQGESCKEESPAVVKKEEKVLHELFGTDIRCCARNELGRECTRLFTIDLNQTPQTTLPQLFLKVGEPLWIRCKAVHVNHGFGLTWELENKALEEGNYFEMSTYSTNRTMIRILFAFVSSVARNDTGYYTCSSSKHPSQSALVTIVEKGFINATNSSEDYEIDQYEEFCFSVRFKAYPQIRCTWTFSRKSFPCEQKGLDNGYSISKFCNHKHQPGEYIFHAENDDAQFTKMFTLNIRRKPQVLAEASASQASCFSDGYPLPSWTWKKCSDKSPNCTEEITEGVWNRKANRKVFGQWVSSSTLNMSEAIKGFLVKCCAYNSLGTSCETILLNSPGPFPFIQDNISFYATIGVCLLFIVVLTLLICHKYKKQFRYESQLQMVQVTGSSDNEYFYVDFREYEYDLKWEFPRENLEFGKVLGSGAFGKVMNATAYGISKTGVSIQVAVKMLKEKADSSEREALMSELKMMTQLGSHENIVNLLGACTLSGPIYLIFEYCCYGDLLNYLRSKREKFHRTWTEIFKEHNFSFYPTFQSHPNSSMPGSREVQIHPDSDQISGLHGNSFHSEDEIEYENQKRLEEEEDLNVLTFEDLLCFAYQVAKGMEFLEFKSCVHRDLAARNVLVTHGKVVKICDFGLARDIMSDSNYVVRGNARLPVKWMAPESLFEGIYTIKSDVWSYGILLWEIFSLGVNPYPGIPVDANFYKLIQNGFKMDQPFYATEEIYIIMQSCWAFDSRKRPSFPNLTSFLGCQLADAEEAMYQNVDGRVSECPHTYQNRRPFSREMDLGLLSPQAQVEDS
Procedure: Specific cellular inhibition of FLT ligand-induced wild-type FLT3 phosphorylation was measured in the following manner: Baf3 FLT3 cells overexpressing the FLT3 receptor were obtained from Dr. Michael Heinrich (Oregon Health and Sciences University). The Baf3 FLT3 cell lines were created by stable transfection of parental Baf3 cells (a murine B cell lymphoma line dependent on the cytokine IL-3 for growth) with wild-type FLT3. Cells were selected for their ability to grow in the absence of IL-3 and in the presence of FLT3 ligand.
Baf3 cells were maintained in RPMI 1640 with 10% FBS, penn/strep and 10 ng/ml FLT ligand at 37° C., 5% CO2. To measure direct inhibition of the wild-type FLT3 receptor activity and phosphorylation a sandwich ELISA method was developed similar to those developed for other RTKs (see Sadick, M D, Sliwkowski, M X, Nuijens, A, Bald, L, Chiang, N, Lofgren, J A, Wong W L T. Analysis of Heregulin-Induced ErbB2 Phosphorylation with a High-Throughput Kinase Receptor Activation Enzyme-Linked Immunsorbent Assay, Analytical Biochemistry. 1996; 235:207-214 and Baumann C A, Zeng L, Donatelli R R, Maroney A C. Development of a quantitative, high-throughput cell-based enzyme-linked immunosorbent assay for detection of colony-stimulating factor-1 receptor tyrosine kinase inhibitors. J Biochem Biophys Methods. 2004; 60:69-79.). 200 μL of Baf3FLT3 cells (1×10^6/mL) were plated in 96 well dishes in RPMI 1640 with 0.5% serum and 0.01 ng/mL IL-3 for 16 hours prior to 1 hour compound or DMSO vehicle incubation. Cells were treated with 100 ng/mL Flt ligand (R&D Systems Cat# 308-FK) for 10 min. at 37° C. Cells were pelleted, washed and lysed in 100 ul lysis buffer (50 mM Hepes, 150 mM NaCl, 10% Glycerol, 1% Triton-X-100, 10 mM NaF, 1 mM EDTA, 1.5 mM MgCl2, 10 mM NaPyrophosphate) supplemented with phosphatase (Sigma Cat# P2850) and protease inhibitors (Sigma Cat #P8340). Lysates were cleared by centrifugation at 1000×g for 5 minutes at 4° C. Cell lysates were transferred to white wall 96 well microtiter (Costar #9018) plates coated with 50 ng/well anti-FLT3 antibody (Santa Cruz Cat# sc-480) and blocked with SeaBlock reagent (Pierce Cat#37527). Lysates were incubated at 4° C. for 2 hours. Plates were washed 3× with 200 ul/well PBS/0.1% Triton-X-100. Plates were then incubated with 1:8000 dilution of HRP-conjugated anti-phosphotyrosine antibody (Clone 4G10, Upstate Biotechnology Cat#16-105) for 1 hour at room temperature. Plates were washed 3× with 200 ul/well PBS/0.1% Triton-X-100. Signal detection with Super Signal Pico reagent (Pierce Cat#37070) was done according to manufacturer's instruction with a Berthold microplate luminometer. All data points are an average of triplicate samples. […] Inhibition and IC50 data analysis was done with GraphPad Prism using a non-linear regression fit with a multiparamater, sigmoidal dose-response (variable slope) equation.

SMILES | IC50 [1] [nM] | IC50 (MV4-11 cells) [nM] | IC50 [2] [nM]
CC(C)c1ccc(NC(=O)OC2CCN(c3ccnc4ccccc34)CC2)cc1 [Compound 10] | 26 | 1100 | –
COc1cc2ncnc(N3CCC(OC(=O)Nc4ccc(OC5CCC5)nc4)CC3)c2cc1OC [Compound 11, (6-Cyclobutoxy-pyridin-3-yl)-carbamic acid 1-(6,7-dimethoxy-quinazolin-4-yl)-piperidin-4-yl ester] | 28 | 71 | –
CC(C)c1ccc(NC(=O)OC2CCN(c3ncnc4ccccc34)C2)cc1 (stereo not shown) [Compound 24, (4-Isopropyl-phenyl)-carbamic acid 1-quinazolin-4-yl-pyrrolidin-3-yl ester] | 290 | 220 | –
COc1cc2ncnc(N3CC(CNC(=O)Nc4ccc(OC(C)C)cc4)C3)c2cc1OC [Compound 25, 1-[1-(6,7-Dimethoxy-quinazolin-4-yl)-azetidin-3-ylmethyl]-3-(4-isopropoxy-phenyl)-urea] | 408 | > 10000 | –
CC(C)c1ccc(NC(=O)NC2CCN(c3ccnc4ccccc34)C2)cc1 (stereo not shown) [Compound 27, (4-Isopropyl-phenyl)-3-(1-quinolin-4-yl)-pyrrolidin-3-yl-urea] | 457 | 5300 | –
COc1cc2ncnc(N3CCC(C(=O)Nc4cccc(OC(C)C)c4)CC3)c2cc1OC [Compound 30, 1(-6,7-Dimethoxy-quinazolin-4-yl)-piperidine-4-carboxylic acid (3-isopropoxy-phenyl)-amide] | 563 | 2310 | –
CC(C)c1ccc(NC(=O)OC2CCN(c3ccnc4ccccc34)C2)cc1 (stereo not shown) [Compound 34] | 1050 | 6400 | –
CC(C)Oc1ccc(NC(=O)NC2CCN(c3ccnc4ccccc34)C2)cc1 (stereo not shown) [Compound 38, (4-Isopropoxy-phenyl)-3-(1-quinolin-4-yl)-pyrrolidin-3-yl-urea] | 3150 | > 3000 | –
CC(C)Oc1ccc(NC(=O)OC2CCN(c3ccnc4ccccc34)C2)cc1 (stereo not shown) [Compound 39] | 7140 | > 10000 | –
COc1cc2ncc(C#N)c(N3CCC(OC(=O)Nc4ccc(OC(C)C)cc4)CC3)c2cc1OC [Compound 40, (4-Isopropoxy-phenyl)-carbamic acid 1-(3-cyano-6,7-dimethoxy-quinolin-4-yl)-piperidin-4-yl ester] | > 10000 | – | –
COCCOc1ccc2c(N3CCC(NC(=O)Nc4ccc(C(C)C)cc4)CC3)ncnc2c1 [Compound 73, 1-(4-Isopropyl-phenyl)-3-{1-[7-(2-methoxy-ethoxy)-quinazolin-4-yl]-piperidin-4-yl}-urea] | – | 208 | 109
CC(C)c1ccc(NC(=O)NC2CCN(c3ncnc4cc(OCCN5CCCC5=O)ccc34)CC2)cc1 [Compound 74, 1-(4-Isopropyl-phenyl)-3-(1-{7-[2-(2-oxo-pyrrolidin-1-yl)-ethoxy]-quinazolin-4-yl}-piperidin-4-yl)-urea] | – | 177 | 4
CC(C)c1ccc(NC(=O)NC2CCN(c3ncnc4cc(OCCCN5CCN(C)CC5)ccc34)CC2)cc1 [Compound 75, 1-(4-Isopropyl-phenyl)-3-(1-{7-[3-(4-methyl-piperazin-1-yl)-propoxy]-quinazolin-4-yl}-piperidin-4-yl)-urea] | – | 1 | 1
